# Experimental data: patent US20230331781A1, “PAR4 DERIVED PEPTIDES, ANALOGS AND USES THEREOF” (Yissum Research Development Company of the Hebrew …, priority 2019, published 2023)
# Entries after “also recorded” stand apart in the source; their conditions may differ. Numbered stars: 1 amine (or outer) side, 2 acyl side, 3 side chain; on linkers, the order of the positions; unused ones are H or OH. Bridge positions count the residues as written; N and C are the ends. Square brackets hold non-standard residues; d marks the D form. Ends that are not written are not given here. GlyBU(C4) = Gly building unit (N-alpha-functionalized Gly) carrying a C4 alkyl chain (n = m = 4), bridged through a urea group; CO = O=C([*:1])[*:2]
# How the values were obtained:
# PAR4-Akt association = molecular target: T1, PAR4-Akt association (Homo sapiens, UniProt P31749); test: PAR4-Akt association, immunoprecipitation in HEK293 cells transfected with flg-Par4 and AYPGKF activated; assay type: cell-based; settings: HEK293 cells, 50 nM-150 μM, FIG. 8A
# T1 construct: FLAG; expressed in transfected cells
# Protocol: Experiments shown in FIG. 3A-3C were carried out in MDA-MB-231 cells. […] Unpaired Student's t test was used. This experiment is a representative of three independent experiments performed in triplicates. […] HEK 293T cells were transfected with wt flg-Par4 followed by AYPGKF activation of PAR4. IP was performed using anti fig abs of cells treated or not with CTP4-A peptide and immunoblotting with anti-Akt abs.
# FIG. 4A—PH-Akt module alone binds PAR4-C-tail but not mutant R25C. HEK 293 cells were transiently transfected with flg-Par4 construct and either with GFP-PH-Akt domain alone or GFP-R25C. IP of cell lysates following PAR4 AYPGKF activation was carried out using anti-flg abs. Detection of either Akt-PH domain alone associated with PAR4 was performed with anti-GFP. […] FIG. 4C—The PI3K inhibitor […] inhibits the binding of Akt to PAR4. Treatment of HEK 293 cells with LY294002 for various time points or not, following transient transfection with flg-Par4 and AYPGKF activation was performed. Cell lysates were immunoprecipitated with anti-flg antibodies, and anti-Akt was used to assess the association of Akt with the PAR4 C-tail. […] Amino acid residues of PAR4- and PAR2-PH binding motifs. FIG. 4E—mutations inserted into flg-Par4 generated flg-Par4MutE346A. HEK293 cells were transiently transfected with either wt flg-Par4 or flg-Par4MutE346A. IP of cell lysates following PAR4 activation was carried out using anti-flg abs. Detection of PAR4-Akt association was performed by anti Akt Abs. While association with wt Par4 is seen after 5 and 10 min AYPGKF PAR4 activation, when using flg-Par4 E346A no inhibition is seen and effective association with Akt is seen at 30 min activation. FIG. 4F—utations inserted into flg-Par4 generated flg-Par4Mut F347A and flg-Par4Mut D349A. HEK293 cells were transiently transfected with either wt flg-Par4 or flg-Par4Mut F347A or flg-Par4Mut D349A. IP of cell lysates following PAR4 activation was carried out using anti-f/g abs. Detection of PAR4-Akt association was performed by anti Akt Abs. While association with wt Par4 is seen after 5 min AYPGKF PAR4 activation, no such binding is obtained when using either flg-Par4 F347A or flg-Par4D349A.
# HEK293 cells were transiently transfected with flg-Par4 followed by AYPGKF PAR4 activation in the presence and absence of PAR4c (4-4) within the range of 50 nM-150 μM. IP of cell lysates following different periods of activation was carried out using anti flg abs. Detection of Akt was performed by anti Akt abs. β-actin serves as a control gene for loading. […] Matrigel invasion before and after AYPGKF PAR4 activation and in the presence and absence of PAR4 c(4-4) inhibitor in the activated PAR4 cells. […] FIG. 8C—Histograms represent quantification of the cells/HPF invaded the Matrigel layer. […]
# Lovo colon cancer cells = test: Matrigel invasion of Lovo colon cancer cells after AYPGKF PAR4 activation; assay type: cell-based; settings: PAR4 activated Lovo cells, 50 nM-150 μM, FIGS. 8B and 8C
# Protocol: HEK293 cells were transiently transfected with flg-Par4 followed by AYPGKF PAR4 activation in the presence and absence of PAR4c (4-4) within the range of 50 nM-150 μM. IP of cell lysates following different periods of activation was carried out using anti flg abs. Detection of Akt was performed by anti Akt abs. β-actin serves as a control gene for loading. […] Matrigel invasion before and after AYPGKF PAR4 activation and in the presence and absence of PAR4 c(4-4) inhibitor in the activated PAR4 cells. A range between 50 nM-150 μM PAR4 c(4-4) inhibitor was applied. While ample Matrigel invasion is seen following PAR4 activation, this was attenuated in the presence of the inhibitor in all the concentrations used, similar to control prior to PAR4 activation. FIG. 8C—Histograms represent quantification of the cells/HPF invaded the Matrigel layer. Unpaired Student's t test was used. This experiment is a representative of three independent experiments performed in triplicates. FIG. 8D-8K show Wound-scratch migration assay. Lovo cancer cell-line was grown to confluence. Then, an equal wound scratch was introduced to Lovo cell monolayers. […]
# When we analyzed the impact of Pc(4-4) on the capability of activated PAR4 in Lovo colon cancer cell line to invade Matrigel, a robust invasion is seen (FIG. 8B), inhibited in the presence of Pc(4-4). […]
# pEGFR = test: PAR4 induced pEGFR in MDA-MB-231 cells (Western blot); assay type: cell-based, human; settings: endogenous PAR4 and EGFR, AYPGKF 200 μM, FIG. 17
# Protocol: Activation of PAR4 induces phosphorylation of EGFR. This is seen 15 min following AYPGKF the synthetic hexa peptide application for PAR4 activation. MDA-231 cells were serum starved over night following AYPGKF PAR4 activation (200 μM) for 5-60 min. Detection by Western blot analyses of pY-EGFR and EGFR was performed using either anti-phospho tyrosine or anti EGFR antibodies respectively. PAR4 activation induces EGFR tyrosine phosphorylation within 15 min.
# We have performed immunohistochemical (IHC) staining analyses of EGFR in Her2/Neu and TN breast cancer patient tissues. Analyses have indicated the presence of EGFR in both HER2/Neu as also in TN breast cancer tissue biopsy specimen (FIGS. 16A and 16B, respectively). Pc(4-4) Inhibits PAR4 Induced pEGFR in MDA-MB-231 Cells MDA-MB-231 cells were serum starved overnight following AYPGKF PAR4 activation (200 μM) for 5-60 min in the presence and absence of Pc(4-4) (200 μM). Detection by Western blot analyses of pEGFR and EGFR was performed using either anti-phosphotyrosine or anti-EGFR antibodies (1:1000 dilution), respectively. […] AYPGKF activation of PAR4 leads to pTyr-EGFR in MDA-231 cells (see FIG. 17). […] In the presence of Pc(4-4) cyclic peptide (right panel) potently (200 μM) inhibition of the phosphorylation of EGFR is observed (FIG. 17). […]
# T1 sequence (P31749 whole entry): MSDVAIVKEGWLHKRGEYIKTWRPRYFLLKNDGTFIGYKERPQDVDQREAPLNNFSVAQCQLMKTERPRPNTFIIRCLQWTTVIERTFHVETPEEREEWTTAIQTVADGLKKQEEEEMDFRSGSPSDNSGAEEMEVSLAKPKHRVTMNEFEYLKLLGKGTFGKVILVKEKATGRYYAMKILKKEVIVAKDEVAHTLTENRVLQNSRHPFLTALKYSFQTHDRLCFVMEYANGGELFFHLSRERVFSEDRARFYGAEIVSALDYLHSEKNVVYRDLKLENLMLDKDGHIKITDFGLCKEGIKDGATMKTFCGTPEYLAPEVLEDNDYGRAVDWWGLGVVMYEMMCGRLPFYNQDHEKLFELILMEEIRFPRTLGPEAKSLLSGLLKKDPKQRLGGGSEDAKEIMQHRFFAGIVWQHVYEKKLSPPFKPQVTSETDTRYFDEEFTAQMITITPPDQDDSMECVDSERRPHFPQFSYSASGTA
substance,measurement,setting,value
"Pc(4-4): backbone cyclic analog of Formula I, m=n=4, ring size 30 atoms (S[GlyBU(C4)]EFRDK[GlyBU(C4)]; bridge 2-8 via CO; not fully specified; printed as SZ1EFRDKX3)",inhibition of Akt/PKB-PAR4 association (IP),PAR4-Akt association,strong inhibition
same,inhibition of Akt/PKB-PAR4 association (IP),PAR4-Akt association; listed as PAR4 c(4-4),inhibits
same,inhibition of Matrigel invasion,Lovo colon cancer cells,inhibited
same,inhibition of Matrigel invasion,Lovo colon cancer cells; listed as PAR4 c(4-4),inhibits; also recorded: attenuated
same,inhibition of PAR4 induced phosphorylation of EGFR,pEGFR,potently inhibited
